This test concerns Plasmodium falciparum. Briefly: GSK_TCMDC: Inhibition of Plasmodium falciparum 3D7 in whole erythrocytes, using parasite LDH activity as an index of growth. The following applies: Plasmodium falciparum, 3D7. In kind it is functional, organism-based.

`CCc1ccnc2c(N3CCCC3=O)cc(C(=O)N[C@@H](Cc3ccccc3)[C@H](O)CNC3CCOCC3)cc12` yielded an XC50 of 381 nM.

`O=S1(=O)C=C(c2ccccc2)CC1` yielded an XC50 of 205 nM.

As to `CC(C)C[C@@H](/C=N/NC(N)=O)NC(=O)[C@H](CC(C)C)NC(=O)[C@H](CC(C)C)NC(=O)OCc1ccccc1`, the XC50 came out at 150 nM.

As for `Cc1cc(=NN=CC=Cc2ccccc2)c2ccc(F)cc2[nH]1`, the XC50 is 590 nM.

In the case of `O=C(C1CCN(c2nnnn2-c2ccccc2)CC1)N1CCc2ccccc2C1`, the XC50 turned out to be 712 nM.

Regarding `Cc1ccc2[nH]c(-c3cc(-c4cccc(CCN5CCOCC5)c4)cnc3N)nc2c1`, the XC50 amounted to 170 nM.

`COCCNCc1cccc(-c2ccc3nccc(Nc4cc(O)ccc4C)c3c2)c1` registered an XC50 of 749 nM.

Take `COc1ccc(NC(=O)c2c(NC(=O)c3cccs3)sc3c2CCCC3)cc1`: the XC50 is 448 nM.

`CN1CCN(C(=O)CN2CCC3(CCC2=O)NC(=O)c2ccccc2O3)CC1` (stereo not drawn) came in with an XC50 of 213 nM.

On to `NC1CCCN(Cc2cccc(-c3cccc(-c4nc5ccccc5[nH]4)c3)c2)C1` (stereo not drawn), for which the XC50 came to 637 nM.

For the compound `CCCCCNc1ccnc2cc(Cl)ccc12`, the XC50 turned out to be 509 nM.

For `CC(C)c1ccc(C=CC(=O)NC2CCC(CN3CCC(c4c[nH]c5ccccc45)CC3)CC2)cc1` (stereo not drawn), the XC50 was found to be 807 nM.

On to `Cn1cncc1CCCN(Cc1ccc(-c2ccc(C(F)(F)F)cc2)cc1)C(=O)Cn1c(CCc2cccc(F)c2F)cc(=O)c2cccnc21`, for which the XC50 was 1250 nM.

Turning to `CN(C)CCN(C)Cc1ccc(-c2cccc(NC(=O)c3ccc(Cl)cc3)c2)cc1`, the XC50 turned out to be 558 nM.

`COc1ccc(CN2CCC(N3CC(c4ccccc4)(c4ccccc4)OCC3=O)C2)c(O)c1` (stereo not drawn): the XC50 amounted to 931 nM.

As for `Cc1ccc(NC(=O)NC2CCN(CCCCCNC(=O)C3CC3c3ccc(Cl)c(Cl)c3)CC2)cc1` (stereo not drawn), the XC50 amounted to 540 nM.

With `O=C(/C=C/c1ccc(Cl)c(Cl)c1)NCCCCCN1CCC(NC(=O)NC2CCCC2)CC1`, the XC50 worked out at 631 nM.

Regarding `CC(C)(C)CCOC(=O)N1CCc2c(cc(O)c(O)c2Cl)C(c2ccc(O)cc2)C1` (stereo not drawn), the XC50 was 752 nM.

The compound `O=S(=O)(NC1CCN(c2ccnc3cc(Cl)ccc23)C1)c1cccc(F)c1` (stereo not drawn) displayed an XC50 of 486 nM.

For the compound `COc1ccc(C(=O)Nc2nonc2-c2ccc(OC)c(OC)c2)cc1Cl`, the XC50 was determined as 675 nM.

In turn, `Fc1cccc(CNc2ncc(-c3ccsc3)c(-c3nccs3)n2)c1` registered an XC50 of 238 nM.

`CCNc1cc(C)nc(Nc2ccc(NC(=O)C3CCCC3)cc2)n1` came in with an XC50 of 1120 nM.

In turn, `O=C(Nc1ccc(C(=O)N2CCN(CCN3CCN(c4cccc(C(F)(F)F)c4)CC3)CC2)cc1)c1cc(Cl)cc(Cl)c1` returned an XC50 of 827 nM.

`O=[N+]([O-])c1ccc(CNCCCCCCNCc2ccc([N+](=O)[O-])c3ccccc23)c2ccccc12` returned an XC50 of 787 nM.

`N#Cc1ccc(/C=C/C(=O)NCCCCCN2CCCN(C(=O)Nc3ccc(Cl)c(C(F)(F)F)c3)CC2)cc1` had an XC50 of 437 nM.

On to `Cc1cc(=NN=Cc2ccccc2F)c2cc(C(F)(F)F)ccc2[nH]1`, for which the XC50 turned out to be 433 nM.

In turn, `COCCNCc1ccc(-c2ccc3c(Nc4ccc(Cl)cc4F)ccnc3c2)o1` came in with an XC50 of 206 nM.

For `CC(C)(C)OC(=O)Nc1cccc(-c2csc(NC(=N)N)n2)c1`, the XC50 was found to be 836 nM.

For the compound `CCOC(=O)c1nc(-c2ccccc2)[nH]c1NC(=S)NC1CCCCC1`, the XC50 worked out at 836 nM.

`Cc1cc2c(cc1Cl)N(C(=O)Nc1cc(F)cc(-c3cncnc3)c1)CC2`: the XC50 was 377 nM.

For the compound `CC(=O)Nc1nc(N)c2c(ccc3c2ccn3CC(C)C)n1`, the XC50 came out at 69.6 nM.

With `COc1ccc2nccc([C@@H](O)CN3CCC(NC(=O)/C=C/c4c[nH]c5c(C)cccc45)CC3)c2c1`, the XC50 was 135 nM.

`CCN(CC)/C(=N\CCCCCC/N=C(\NC(=N)c1ccc(Cl)cc1)N(CC)CC)NC(=N)c1ccc(Cl)cc1` had an XC50 of 381 nM.

Compound `Cc1nc(-c2cccc(NCc3ccccc3)c2)[nH]c1C` yielded an XC50 of 863 nM.

For the compound `CCCN(c1ccc(O)c(CN2CCCCC2)c1)c1ccc([N+](=O)[O-])cn1`, the XC50 came to 805 nM.

Regarding `O=C(Nc1ccccc1F)NC1CCN(c2ccnc(Nc3ccc(F)cc3)n2)CC1`, the XC50 was 754 nM.

`CC(C)=CCc1c(-c2ccc(O)cc2O)oc2c3c(cc(O)c2c1=O)OC(C)(C)C=C3` [MORUSIN]: the XC50 was determined as 977 nM.

Turning to `COc1cc(Cl)c(C)cc1N(Cc1ccccc1-c1ccccc1)S(=O)(=O)c1ccc(C(F)(F)F)cc1`, the XC50 stood at 1050 nM.

On to `CCc1sc(N2CCN(C)CC2)nc1C(=O)NCCc1ccc(Cl)c(Cl)c1`, for which the XC50 is 1180 nM.

The compound `CCCC(CNCc1ccc(Cl)c(C(F)(F)F)c1)CNc1nc2cnccc2[nH]1` (stereo not drawn) had an XC50 of 291 nM.

In the case of `CCNc1cc(C(=O)N[C@@H](Cc2ccccc2)[C@H](O)CNC2CCC(C(C)(C)C)CC2)cc(N2CCCC2=O)c1` (stereo partly drawn), the XC50 stood at 444 nM.

Consider `COc1ccc(CNC2CCN(C)CC2)cc1-c1ccc(S(=O)(=O)NCCc2ccccn2)cc1`, for which the XC50 stood at 1090 nM.

Turning to `COc1cc(F)c2nccc([C@@H](O)CN3CCC(NCc4cc5c(cc4F)OCCO5)CC3)c2c1`, the XC50 stood at 679 nM.

With `CCOc1ccc2ccccc2c1CNCCCCCCNCc1c(OCC)ccc2ccccc12`, the XC50 was 576 nM.

The compound `Cc1cccc2nc(-c3ccc(-c4cccc(CNCCc5ccncc5)c4)s3)[nH]c12` showed an XC50 of 138 nM.

Turning to `COc1cccc(CNC(=O)c2cccc(-c3ccc(CN4CCC(N5CCCC5)CC4)cc3)n2)c1`, the XC50 turned out to be 1790 nM.

Compound `COc1cc(CNC[C@@H](O)[C@H](Cc2ccccc2)NC(=O)c2cc(C3CCCC3)cc(N3CCCC3=O)c2)cc(OC)c1` yielded an XC50 of 224 nM.

Consider `CC(C)CNCc1cccc(-c2ccc(CNc3ccc(C(=O)c4ccccc4)cc3)cc2)c1`, for which the XC50 was 760 nM.

For the compound `CCCCCCC1(C)N=C(N)N=C(N)C1c1ccc(Cl)c(Cl)c1` (stereo not drawn), the XC50 turned out to be 132 nM.

As to `CC(O)C1CCCCN1C(=O)c1cccc(-c2cccc(-c3nc4cc(C(F)(F)F)ccc4[nH]3)c2)c1` (stereo not drawn), the XC50 amounted to 280 nM.

Take `CCOc1ccccc1CNc1nccc(NCc2ccccc2OC)n1`: the XC50 is 1490 nM.

Regarding `Cc1cccc2nc(-c3cccc(-c4ccc(C(=O)NCc5ccccc5S(C)(=O)=O)cc4)c3)[nH]c12`, the XC50 was 750 nM.

Turning to `CCCCCNC(=N)N/N=C/c1c[nH]c2ccc(OC)cc12`, the XC50 was determined as 955 nM.

In turn, `FC(F)(F)c1ccc2[nH]c(-c3cccc(-c4ccc(CNCCc5ccncc5)cc4)c3)nc2c1` showed an XC50 of 98.9 nM.

`Cc1cc(N2CCCC2)nc(Nc2ccc(NC(=O)c3ccc4c(c3)OCO4)cc2)n1` yielded an XC50 of 815 nM.

As for `COc1ccc(-c2nc(NC(=O)Cc3ccc(OC)c(OC)c3)sc2C)cc1`, the XC50 was 1160 nM.

Turning to `Cc1ccc(-c2nnc(Nc3ccc(C(=O)N4CCCCC4)cc3)c3ccccc23)cc1S(=O)(=O)NCC1CCCO1` (stereo not drawn), the XC50 was found to be 709 nM.

Regarding `O=C(NCc1ccco1)c1ccc(S(=O)(=O)c2ccc(Cl)cc2)cc1`, the XC50 came to 448 nM.

As for `Cc1cccc2nc(O)c([N+](=O)[O-])c(O)c12`, the XC50 was 911 nM.

In turn, `c1ccc(CNCc2cccc(-c3cccc(-c4nc5ccccc5[nH]4)c3)c2)cc1` showed an XC50 of 569 nM.

In the case of `Cc1c(CN2CCCCC2)cccc1OCCCNc1nc(NCCc2ccc(O)cc2)nc(N2CCNCC2)n1`, the XC50 was 223 nM.

`Cc1cccc2nc(-c3cccc(-c4ccc(C(=O)NCc5nccn5C)cc4)c3)[nH]c12` registered an XC50 of 1320 nM.

With `CS(=O)(=O)NCCCNCc1ccc(-c2cccc(-c3nc4cc(C(F)(F)F)ccc4[nH]3)c2)cc1`, the XC50 stood at 854 nM.

Source of the values: ChEMBL document CHEMBL1157539, “Thousands of chemical starting points for antimalarial lead identification” (Nature, 2010).
